{"source": "patent US20240124510A1", "about": "“Cyclic Glycoaminoacid Derivatives” (TFCHEM, priority 2021, published 2024)", "key": {"[1]": {"test_system": "Normal human epidermal keratinocytes (NHEK)", "test": "Lipid peroxidation in NHEK under UV stimulation (C11-fluor probe, flow cytometry)", "type": "cell-based", "conditions": "100 μM, irradiated UVB 300 mJ/cm^2 (+UVA 2.1 J/cm^2)", "description": "Normal human epidermal keratinocytes were seeded in 48-well plates and cultured in culture medium for 24 hours and then in assay medium for a further 24 hours. The medium was then removed and replaced by assay medium containing or not (irradiated control) the test compounds or the reference (BHA—butylated hydroxyanisole, lipid peroxidation inhibitor—at 100 μM) and the cells were pre-incubated for 24 hours. After pre-incubation, the specific fluorescent probe for the measurement of lipid peroxides (C11-fluor) was added and the cells were incubated for 45 minutes. Then, the medium was removed and replaced by assay medium containing or not (irradiated control and test compound conditions) the reference and the cells were irradiated with UVB (+UVA)−300 mJ/cm^2 (+2.1 J/cm^2). The lamp used was a SOL500 Sun Simulator equipped with an H2 filter (Dr. Hbnle. AG). After irradiation, the medium was removed and replaced by assay medium containing or not (irradiated control) the test compounds or the reference and the cells were incubated for 30 minutes before flow cytometry analysis. A non-irradiated control condition was performed in parallel. All experimental conditions were performed in triplicate.\nAt the end of the incubation, in each well, the cells were trypsinized and transferred into specific tubes for the analysis of C11-fluor fluorescence intensity using a BD FACSVerse™ flow cytometer (acquisition of 2000 to 5000 events per tube). The C11-fluor fluorescent probe is a lipid analogue which integrates cell membranes. As the fluorescence intensity of this probe is decreased with oxidation, it is inversely proportional to the lipid peroxidation. In order to facilitate the result interpretation, the lipid peroxidation was expressed using the value “1/fluorescence intensity” in order to have a direct proportionality between the induction of lipid peroxidation and the values of “% of irradiated control”.\nResults presented in Table 24 are expressed as fluorescence intensity and as […] of protection compared to the control."}, "[2]": {"test_system": "IL-6", "test": "Extracellular secretion of IL-6 by preadipocytes in inflammatory condition (ELISA)", "type": "cell-based, human", "description": "(§1) Preadipocytes have been isolated from human female hypodermis (body mass index <30 kg/m2 and <45 years old). Preadipocytes have been cultured for 24 h in 100 μl of DMEM-10% Fetal Bovine Serum (FBS) in 96-well plates. Then cells were treated to induce their differentiation in a classical or an inflammatory environment for 13 days.\n(§2) To induce the preadipocytes differentiation cells were incubated in a proadipogenic cocktail (PAC) including insulin, glucocorticoid, 3-isobutyl-1-methylxanthine (IBMX), and thiazolinedione in DMEM.\n(§3) To induce a fibro-inflammatory environment, cells were treated with an activated human macrophage-conditioned medium (AcMC) prepared in RPMI medium. A treatment with Dexamethasone (DXM) at 100 nM was used as anti-inflammatory response control. At D0: preadipocytes have been treated in the following conditions: • “Undifferentiation”: DMEM+¼ RPMI medium • “Differentiation”: PAC+¼ RPMI medium • “AcMC” i.e. inflammatory condition: PAC+¼ AcMC • “AcMC+DXM”: PAC+[…] AcMC+anti-inflammatory DXM at 100 nM • “AcMc+compounds”: PAC+14 AcMC+compounds to be tested\n(§4) All conditions have been performed in triplicate. The medium has been changed every 2 days for 13 days.\n(§5) At D14: during the last 24 h of culture, the medium has been replaced by DMEM/F12 medium in all conditions, to collect cells' secretions.\n(§6) After 13 days, the 24 h culture media of the different conditions have been collected at the end of the treatment period. The concentrations of IL-6, procollagen I and MCP1 have been evaluated by ELISA assays using specific kits (for IL-6: DY206, DuoSet ELISA, R&D Systems; for Procollagen I: DY6220-05, DuoSet ELISA, R&D Systems; for MCP1: DY279-05 DuoSet ELISA, R&D Systems) according to the manufacture's recommendations. Values have been normalized to the cell number determined by DAPI staining.\nQuantity of IL-6 secreted in medium was measured and was normalized by cell number in each culture condition. Data are represented in percentage of proinflammatory control condition (AcMC condition)."}, "[3]": {"test_system": "MCP1", "test": "Extracellular secretion of MCP1 by preadipocytes in inflammatory condition (ELISA)", "type": "cell-based, human", "description": "as §1, §2, §3, §4, §5, §6\nQuantity of MCP1 secreted in medium was measured and was normalized by cell number in each culture condition. Data are represented in percentage of proinflammatory control condition (AcMC condition)."}, "[4]": {"test_system": "IL-6", "test": "IL-6 secretion in coculture of human aged fibroblasts and mature adipocytes (AM3D-FB2D, ELISA)", "type": "cell-based", "conditions": "for secretion of IL-6 in percentage of the coculture control condition, Mean (%) / secretion of IL-6 in percentage of the coculture control condition, Values (%): 100 nM; for secretion of IL-6 in percentage of the coculture control condition, Values (%): individual replicates; for IL-6 secretion in percentage of the coculture control condition: anti-inflammatory reference item", "from_the_text": "In order to evaluate its effect on fibroblast matrix and its anti-inflammatory properties, the effect of compound 6 has been tested on an adipocytes-aged fibroblasts coculture model, mimicking the interactions between dermis and hypodermis in the skin and allowed to explore in parallel the biological effects of the products on two cellular targets.\n• Experimental model: co-culture of human mature adipocytes cultured in 3D and human dermal fibroblasts cultured in 2D (AM3D-FB2D co-culture). This experimental model of AM3D-FB2D co-culture mimicked the interactions between dermis and hypodermis in the skin and allowed to explore in parallel the biological effects of the products on two cellular targets. • Donor characteristics: This study was performed on mature adipocytes and fibroblasts from two different donors (one donor for mature adipocytes and another donor for dermal fibroblasts). • Fibroblasts donor=person, BMI=28 kg/m^2 • Adipocytes donor=person, BMI=21.4 kg/m^2 • Treatment procedure: compound 6 was added to the co-culture medium daily for up to 6 days\nDermal fibroblasts were seeded in DMEM 10% FBS at 10000 cells/well. The day after, the adipocytes capsules of 50 μl were added in suspension above the fibroblasts and the medium was changed and replaced by a specific culture medium for the co-culture AM3D-FB2D. The formation of adipocytes capsules followed an internal standardized protocol. Briefly, the fully mature adipocytes were isolated from the hypodermis after digestion by collagenase. The isolated adipocytes were then washed with a wash buffer and encapsulated in a peptidic hydrogel to form 3D adipocytes capsules of 50 μl in size. Cells were incubated at 37° C. and 5% CO2 overnight for stabilization. Treatments were initiated at DO with a medium change at DO, D2, D3 and D5. The entire culture media of 24 h incubation was collected at D3 and D6, before being centrifugated and stored at −80° C. Each culture condition was done in triplicate.\nThe biochemical analyses on culture media were performed via ELISA using specific kits according to the manufacturer's recommendations: IL-6 (Duoset DY206, R&D Systems), and Hyaluronic Acid (HA) (Duoset, DY3614-05, R&D Systems and Procollagen I (Duoset, DY6220-05, R&D Systems) The results of HA and Procollagen I were normalized by fibroblasts cell number regarding the fact that these molecules were secreted mainly by fibroblasts. All the biochemical results were represented in percentage of the control condition.\nTo evaluate the effect of the compound 6 on inflammation, the extracellular concentrations of IL-6, that is secreted by the fibroblasts but mainly by the adipocytes, were measured at D3 and D6."}, "[5]": {"test_system": "human preadipocytes", "test": "Total lipid accumulation (AdipoRed staining) in preadipocytes/adipocytes in inflammatory condition", "type": "cell-based", "conditions": "AcMC + 100 nM, end of the culture", "description": "as §1, §2, §3, §4\nAfter 14 days of culture, preadipocytes have been fixed with 4% paraformaldehyde and then stained by AdipoRed™ at room temperature to reveal the intracellular lipid droplets. Quantification of lipid accumulation has been performed by fluorescence intensity measurements using the spectrophotometer Spark (TECAN).\nLipid accumulation and Lipid index were evaluated for each condition. Data are represented in percentage of proinflammatory control condition (AcMC condition)."}, "[6]": {"test_system": "Collagen I fibers", "test": "Quantity of Collagen 1 fibers produced by preadipocytes in inflammatory condition (immunofluorescence)", "type": "cell-based, human", "conditions": "AcMC + 100 nM, normalized by cells number (DAPI)", "description": "as §1, §2, §3\nOne month after fixation of preadipocytes cultivated in pro-inflammatory environment, cells were incubated with 3% Bovine Serum Albumin (BSA) for 30 min in order to block the non-specific sites, then with primary antibody anti-collagen 1 (Novusbio, NB600-408) over-night. After washes with PBS, cells were incubated for 30 min with 3% BSA and then with the secondary antibodies (Goat anti-rabbit alexa-fluor 488, ThermoFisher, A11008) and DAPI (for nuclei staining) for 1 h. After several washes, the acquisition and the quantification were performed with a fluorescent video-microscope. Briefly, the quantification was based on the detection and quantification of cell nuclei stained with DAPI, and the detection of collagen 1 staining. Collagen 1 fibers were detected and measured for their length, thickness and intensity. A Collagen 1 fibers quantity was calculated (Quantity=length*thickness*fluorescence intensity) and normalized by cells number (DAPI staining).\nCollagen I fibers (fibrillar collagen I) quantity was quantified and the data were normalized by cell number (DAPI staining, quantification of nuclei number). Data are represented in percentage of proinflammatory control conditions (AcMC condition)."}, "[7]": {"conditions": "AcMC + 100 nM, normalized by cells number (DAPI)"}, "[8]": {"conditions": "AcMC + 100 nM, normalized by cells number (DAPI), individual values"}}, "note": "Several values for one entry are separate records, joined by “and”; a condition that tells them apart may be missing. Equal values may be shown once."}
{"smiles": "COc1ccc(O)c(C(C)(C)C)c1", "note": "[BHA, Butylated hydroxyanisole, reference compound]", "values": [{"measurement": "% Irradiated control (lipid peroxidation)", "setting": "[1]", "value": 31, "unit": "%"}, {"measurement": "% Protection (lipid peroxidation)", "setting": "[1]", "value": 75, "unit": "%"}, {"measurement": "C11-fluor 1/GMFI Mean (AU)", "setting": "[1]", "value": "2.7E−04", "unit": "AU"}, {"measurement": "C11-fluor 1/GMFI (AU)", "setting": "[1]; individual replicates", "value": "1.90E−04 AU and 2.74E−04 AU and 3.37E−04 AU"}, {"measurement": "C11-fluor GMFI (AU)", "setting": "[1]; individual replicates", "value": "5266 AU and 3653 AU and 2965 AU"}]}
{"smiles": "C[C@@H]1C[C@H]2[C@@H]3CCC4=CC(=O)C=C[C@]4(C)[C@@]3(F)[C@@H](O)C[C@]2(C)[C@@]1(O)C(=O)CO", "note": "[Dexamethasone, reference compound]", "values": [{"measurement": "IL-6 secretion, Mean", "setting": "[2]; [7]", "value": "22.8 % of AcMC condition"}, {"measurement": "IL-6 secretion, Values", "setting": "[2]; [8]", "value": "21.9 % of AcMC condition and 21.8 % of AcMC condition and 24.5 % of AcMC condition"}, {"measurement": "IL-6 secreted, normalized by cell number, in % of AcMC condition", "setting": "[2]; preadipocytes/adipocytes, AcMC, 100 nM", "value": 22.8, "unit": "%"}, {"measurement": "MCP1 secretion, Mean (%)", "setting": "[3]; [7]", "value": "95 % of AcMC condition"}, {"measurement": "MCP1 secretion, Values (%)", "setting": "[3]; [8]", "value": "82.4 % of AcMC condition and 106.8 % of AcMC condition and 97.2 % of AcMC condition"}, {"measurement": "Effect on the MCP1 secretion", "setting": "[3]; AcMC, DXM at 100 nM", "value": "no effect"}, {"measurement": "secretion of IL-6 in percentage of the coculture control condition, Mean (%)", "setting": "[4]; D3", "value": 34, "unit": "%"}, {"measurement": "secretion of IL-6 in percentage of the coculture control condition, Values (%)", "setting": "[4]; D3", "value": "22% and 48% and 31%"}, {"measurement": "secretion of IL-6 in percentage of the coculture control condition, Mean (%)", "setting": "[4]; D6", "value": 41, "unit": "%"}, {"measurement": "secretion of IL-6 in percentage of the coculture control condition, Values (%)", "setting": "[4]; D6", "value": "39% and 24% and 61%"}, {"measurement": "IL-6 secretion in percentage of the coculture control condition", "setting": "[4]; 3 days of treatment", "value": 34, "unit": "%"}, {"measurement": "IL-6 secretion in percentage of the coculture control condition", "setting": "[4]; 6 days of treatment", "value": 41, "unit": "%"}, {"measurement": "Total Lipid Accumulation (Adipored staining), Mean", "setting": "[5]", "value": "220.6 % of AcMC condition"}, {"measurement": "Total Lipid Accumulation (Adipored staining), Values", "setting": "[5]; individual values", "value": "213.8 % of AcMC condition and 229.4 % of AcMC condition and 218.6 % of AcMC condition"}, {"measurement": "Collagen I fibers quantity, Mean (%)", "setting": "[6]", "value": "391 % of AcMC condition"}, {"measurement": "Collagen I fibers quantity, Values (%)", "setting": "[6]; individual values", "value": "397.3 % of AcMC condition and 390.0 % of AcMC condition and 384.5 % of AcMC condition"}]}
